Results: publication PMC9782315, “Site-Specific Albumin-Selective Ligation to Human Serum Albumin under Physiological Conditions” (Bioconjugate Chemistry, 2022)
Read-outs that look alike come from different tables or passages of the source. Where a SMILES comes first, the peptide text is derived from it. [ ]: non-standard residue; d: D form. The star is where a group is joined. Biotin = O=C1N[C@H]2[C@H](CS[C@H]2CCCCC(=O)*)N1; Myristoyl = CCCCCCCCCCCCCC(=O)*; Aad = N[C@@H](CCCC(=O)O)C(=O)O; AEEA = NCCOCCOCC(=O)O

Experiments:
HSA [1] = biological target: T1, HSA (Homo sapiens, UniProt P02768); assay: Neutravidin pull-down assay for conjugation yield of biotinylated HSA; format: biochemical
T1 construct: purchased Sigma Aldrich
T1 sequence (P02768 25-609): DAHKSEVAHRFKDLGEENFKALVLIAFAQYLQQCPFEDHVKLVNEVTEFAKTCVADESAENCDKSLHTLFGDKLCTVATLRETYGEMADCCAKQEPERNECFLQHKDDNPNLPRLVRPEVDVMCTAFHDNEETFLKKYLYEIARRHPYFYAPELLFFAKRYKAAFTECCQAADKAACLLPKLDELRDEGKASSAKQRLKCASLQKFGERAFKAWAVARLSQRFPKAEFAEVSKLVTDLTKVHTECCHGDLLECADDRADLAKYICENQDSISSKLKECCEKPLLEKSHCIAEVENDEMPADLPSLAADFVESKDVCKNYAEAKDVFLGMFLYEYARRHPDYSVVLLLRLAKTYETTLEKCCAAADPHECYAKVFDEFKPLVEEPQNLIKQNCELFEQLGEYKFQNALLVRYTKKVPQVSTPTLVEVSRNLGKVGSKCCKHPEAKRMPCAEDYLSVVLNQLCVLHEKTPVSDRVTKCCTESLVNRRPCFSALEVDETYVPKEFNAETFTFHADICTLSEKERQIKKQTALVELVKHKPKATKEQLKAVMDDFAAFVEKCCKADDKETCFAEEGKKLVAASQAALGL
Description: Zeba spin desalting columns were pre-equilibrated by PBS buffer 3 times on
centrifugation (1500 x g, 1 minute). After conjugation, HSA-LYL conjugates passed
through the equilibrated Zeba desalting column. The flow through was collected and
further condensed by a 500 μL ultracentrifugation tube (MW cutoff = 3000) at 1 5000
rpm at 4 °C for 15 minutes. The resulting condensed solution was immediately
reconstituted by PBS (pH = 7.2), and the condensation process was repeated 2 times to
further remove biotinylated peptidomimetics. After that, the condensed HSA conjugate
(typically 20-50 μL) was diluted by 100 μL PBS for Neutravidin pull-down assay.
Using neutravidin-immobilized agarose, the NeutrAvidin pull-down assay intercepted
biotinylated proteins through biotin-avidin interaction. Therefore, the conjugation yield
can be determined by measuring the difference caused by NeutrAvidin pull -down.
The yield of conjugation is calculated based on the concentration difference of HSA
before and after passing through Neutrvidin agarose, which is calculated by following
𝑌𝑖𝑒𝑙𝑑 = 𝐶𝐻𝑆𝐴 𝑆𝑡𝑜𝑐𝑘−𝐶𝐻𝑆𝐴 𝐹𝑙𝑜𝑤−𝑡ℎ𝑟𝑜𝑢𝑔ℎ × 100% (1) […]
concentration was determined by Bicinchoninic acid (BCA) assay. […]
coulometric reactions were performed at 68°C for 30 minutes and the UV absorbance at
562 nm was measured by plate reader. […]
fluorescence intensity of corresponding Western blots.
was calculated without background subtraction .

HSA [2] = biological target: T1, HSA; assay: Bio-layer interferometry (BLI) assay of non-covalent biotinylated RAEs with HSA; format: binding; settings: human serum albumin (HSA)
Description: S5. BLI Assay for Biotinylated Non-covalent Peptidomimetics.
Figure S6 Chemical Structure of Non-covalent Biotinylated RAEs (NCB-LYL1-4, NCB-LYLG) Biotinylated Non-covalent RAEs was synthesized by replacing acrylamide with acetyl group to study the intrinsic binding affinity of peptidomimetics using bio-layer interferometry (BLI) assay. For BLI assay, 1 μM non-covalent biotinylated RAEs (Figure S6) solution was prepared by kinetic buffer as the bait. As the fish, HSA solution at various concentration prepared by serial dilution using kinetic buffer, and the last well of dilution was filled with kinetic buffer as the reference well. Using 96-well plate, the biosensors were equilibrated in kinetic buffer for 60s. Then biosensors dipped ligands […]
wells, kinetic buffer wells, HSA well, kinetic buffer wells again for 120s, 60s, 480s, 960s as loading, baseline, association, and dissociation step, respectively. The data was subtracted by reference wells and processed by ForteBio Data Analysis software to derive the Kd value using steady-state approximation by 1:1 model (Figure S7-S8)
Figure S7 Bio-layered Interferometry for NCB-LYL1-4 and NCB -LYL -G
(1 picture or pasted object on this page, not shown here)

[3] = BLI, 1 μM non-covalent biotinylated RAE as bait, HSA serial dilution in kinetic buffer, association 480 s, dissociation 960 s, steady-state, 1:1 model, read-out: Kd

O=C1N[C@H]2[C@H](CS[C@H]2CCCCC(=O)Oc2ccc([N+](=O)[O-])cc2)N1 [NBE, 4-Nitrophenyl biotin ester]
Conjugation Yield (HSA [1]; 10 μM HSA, 50 μM RAE or NBE, PBS pH 7.2, room temperature, 1 h, BCA read-out, 3 replications, no background subtraction): 99.0%
uptake by immobilized neutravidin agarose (conjugation yield, text) (HSA [1]; initial condition, physiological pH 7.2, 1 h): ~100%

CCCCCCCCCCCCCC(=O)N[C@H](CCC(=O)O)C(=O)N[C@@H](CC(=O)O)C(=O)N[C@@H](CCCCNC(C)=O)C(=O)N[C@H](CO)C(=O)N[C@@H](CCCC(=O)O)C(=O)NCCOCCOCC(=O)NCCOCCOCC(=O)N[C@@H](CCCCNC(=O)CCCC[C@@H]1SC[C@@H]2NC(=O)N[C@@H]21)C(N)=O [NCB-LYL1] (Myristoyl-[dE]DK(Ac)[dS][Aad][AEEA][AEEA]K(Biotin)-NH2)
Kd at 480 s (HSA [2]; [3]): 1.4 µM

CCCCCCCCCCCCCC(=O)N[C@H](CCC(=O)O)C(=O)N[C@@H](CCCC(=O)O)C(=O)N[C@@H](CCCCNC(C)=O)C(=O)N[C@@H](CC(=O)O)C(=O)N[C@@H](Cc1ccc(O)cc1)C(=O)NCCOCCOCC(=O)NCCOCCOCC(=O)N[C@@H](CCCCNC(=O)CCCC[C@@H]1SC[C@@H]2NC(=O)N[C@@H]21)C(N)=O [NCB-LYL2] (Myristoyl-[dE][Aad]K(Ac)DY[AEEA][AEEA]K(Biotin)-NH2)
Kd at 480 s (HSA [2]; [3]): 1 µM

CCCCCCCCCCCCCC(=O)N[C@H](CCC(=O)O)C(=O)N[C@@H](CCCCNC(C)=O)C(=O)N[C@@H](CCCC(=O)O)C(=O)N[C@H](CCC(=O)O)C(=O)NCCOCCOCC(=O)NCCOCCOCC(=O)N[C@@H](CCCCNC(=O)CCCC[C@@H]1SC[C@@H]2NC(=O)N[C@@H]21)C(N)=O [NCB-LYL3] (Myristoyl-[dE]K(Ac)[Aad][dE][AEEA][AEEA]K(Biotin)-NH2)
Kd at 480 s (HSA [2]; [3]): 2.4 µM

CCCCCCCCCCCCCC(=O)N[C@H](C)C(=O)N[C@@H](CCCC(=O)O)C(=O)N[C@@H](CCCCNC(C)=O)C(=O)N[C@H](CCC(=O)O)C(=O)N[C@H](CO)C(=O)NCCOCCOCC(=O)NCCOCCOCC(=O)N[C@@H](CCCCNC(=O)CCCC[C@@H]1SC[C@@H]2NC(=O)N[C@@H]21)C(N)=O [NCB-LYL4] (Myristoyl-[dA][Aad]K(Ac)[dE][dS][AEEA][AEEA]K(Biotin)-NH2)
Kd at 480 s (HSA [2]; [3]): 2.8 µM

CCCCCCCCCCCCCC(=O)NCC(=O)NCC(=O)N[C@@H](CCCCNC(C)=O)C(=O)NCC(=O)NCC(=O)NCCOCCOCC(=O)NCCOCCOCC(=O)N[C@@H](CCCCNC(=O)CCCC[C@@H]1SC[C@@H]2NC(=O)N[C@@H]21)C(N)=O [NCB-LYLG] (Myristoyl-GGK(Ac)GG[AEEA][AEEA]K(Biotin)-NH2)
Kd at 480 s (HSA [2]; BLI assay, non-covalent (acetyl instead of acrylamide) biotinylated RAEs, read-out: Kd / binding affinity toward HSA): 12 µM
